Source: BigSolDB 2.1

O=C1c2ccccc2-c2ccccc21
solubility (mole fraction)
Details	278.15 K	283.15 K	288.15 K	293.15 K	298.15 K	303.15 K	308.15 K	313.15 K	318.15 K
in DMSO	0.0418	0.0609	0.0728	0.0855	0.112	0.142	0.178	0.216	0.306
in acetonitrile	0.0209	0.0311	0.0481	0.0657	0.102	0.134	0.201	0.281	0.358
in ethanol	0.0127	0.014	0.0164	0.0222	0.0267	0.0307	0.0428	0.0506	0.0693
in ethyl acetate	0.105	0.137	0.142	0.172	0.225	0.243	0.284	0.35	0.371
in ethyl formate	0.0907	0.111	0.14	0.163	0.22	0.25	0.32	0.366	0.409
in isobutanol	0.0156	0.0207	0.0241	0.0305	0.0387	0.0504	0.0622	0.0745	0.0963
in isopropanol	0.0087	0.0119	0.0152	0.0217	0.0273	0.0384	0.0472	0.0592	0.0801
in methanol	0.0037	0.0044	0.0059	0.0084	0.012	0.0154	0.0199	0.0288	0.0401
in n-butanol	0.0119	0.0142	0.0182	0.0286	0.0371	0.0461	0.0631	0.0826	0.113
in n-hexane	0.0038	0.0047	0.0054	0.007	0.0097	0.0132	0.0169	0.0227	0.0304
in n-propanol	0.0143	0.0169	0.0214	0.0294	0.0381	0.0482	0.0653	0.083	0.0997
